What was measured:
[1] = human gut metagenome, 24 h, 2 µM
[2] = human gut metagenome, 24 h, 2 µM; remark: listed apart in the source
[3] = (§1) The drug is tested on Z-024 corresponding to pig gut metagenome with ENA study accession number: PRJEB37062 and ENA sample accession number: ERS12561823 for biotransformation under anaerobic condition. The drug concentrations were measured over 9 timepoints collected between 0 and 24 hours of incubation by liquid-chromatography-coupled mass spectrometry (LC–MS); details: 2 µM
[4] = as §1, with “Z-016” for “Z-024”, “mouse” for “pig”, “ERS12561815” for “ERS12561823”; details: 2 µM
[5] = human gut metagenome, 24 h, 2 µM; remark: listed apart in the source
[6] = as §1, with “Z-020” for “Z-024”, “rabbit” for “pig”, “ERS12561819” for “ERS12561823”; details: 2 µM
[7] = as §1, with “WLS-090” for “Z-024”, “human” for “pig”, “ERS12561753” for “ERS12561823”; details: 2 µM
[8] = human gut metagenome, 24 h, 2 µM; remark: listed apart in the source
[9] = human gut metagenome, 24 h, 2 µM; remark: listed apart in the source
[10] = as §1, with “Z-006” for “Z-024”, “mouse” for “pig”, “ERS12561806” for “ERS12561823”; details: 2 µM
[11] = as §1, with “WLS-039” for “Z-024”, “human” for “pig”, “ERS12561746” for “ERS12561823”; details: 2 µM
[12] = human gut metagenome, 24 h, 2 µM; remark: listed apart in the source
[13] = human gut metagenome, 24 h, 2 µM; remark: listed apart in the source
[14] = as §1, with “WLS-073” for “Z-024”, “human” for “pig”, “ERS12561749” for “ERS12561823”; details: 2 µM
[15] = as §1, with “Z-029” for “Z-024”, “rat” for “pig”, “ERS12561828” for “ERS12561823”; details: 2 µM
[16] = as §1, with “Z-017” for “Z-024”, “mouse” for “pig”, “ERS12561816” for “ERS12561823”; details: 2 µM
[17] = as §1, with “WLS-370” for “Z-024”, “human” for “pig”, “ERS12561793” for “ERS12561823”; details: 2 µM
[18] = as §1, with “Z-005” for “Z-024”, “to” for “to pig gut”, “ERS12561805” for “ERS12561823”; details: 2 µM
[19] = as §1, with “Z-003” for “Z-024”, “ERS12561803” for “ERS12561823”; details: 2 µM
[20] = human gut metagenome, 24 h, 2 µM; remark: listed apart in the source
Also: call rule not given here.

| Structure (SMILES) | Bacterial Biotransformation [1] | Bacterial Biotransformation [2] | Bacterial Biotransformation [3] | Bacterial Biotransformation [4] | Bacterial Biotransformation [5] | Bacterial Biotransformation [6] | Bacterial Biotransformation [7] | Bacterial Biotransformation [8] | Bacterial Biotransformation [9] | Bacterial Biotransformation [10] | Bacterial Biotransformation [11] | Bacterial Biotransformation [12] | Bacterial Biotransformation [13] | Bacterial Biotransformation [14] | Bacterial Biotransformation [15] | Bacterial Biotransformation [16] | Bacterial Biotransformation [17] | Bacterial Biotransformation [18] | Bacterial Biotransformation [19] | Bacterial Biotransformation [20] |
| --- | --- | --- | --- | --- | --- | --- | --- | --- | --- | --- | --- | --- | --- | --- | --- | --- | --- | --- | --- | --- |
| O=C1NCC2(CCN(CCc3ccccc3)CC2)O1 [FENSPIRIDE] | Compound NOT metabolized | Compound NOT metabolized | Compound NOT metabolized | Compound NOT metabolized | Compound NOT metabolized | Compound NOT metabolized | Compound NOT metabolized | Compound NOT metabolized | Compound NOT metabolized | Compound NOT metabolized | Compound NOT metabolized | Compound NOT metabolized | Compound NOT metabolized | Compound NOT metabolized | Compound NOT metabolized | Compound NOT metabolized | Compound NOT metabolized | Compound NOT metabolized | Compound NOT metabolized | Compound NOT metabolized |
| CC(C)NCC(O)COc1ccc(COCCOC(C)C)cc1.CC(C)NCC(O)COc1ccc(COCCOC(C)C)cc1.O=C(O)/C=C/C(=O)O (centres undefined) [BISOPROLOL FUMARATE] | Compound NOT metabolized | Compound NOT metabolized | Compound metabolized | Compound NOT metabolized | Compound NOT metabolized | Compound NOT metabolized | Compound metabolized | Compound metabolized | Compound NOT metabolized | Compound NOT metabolized | Compound NOT metabolized | Compound metabolized | Compound metabolized | Compound NOT metabolized | Compound NOT metabolized | Compound NOT metabolized | Compound NOT metabolized | Compound NOT metabolized | Compound metabolized | Compound NOT metabolized |
| NC(CO)(CO)CO.O=C(c1ccccc1)c1ccc2n1CCC2C(=O)O (centres undefined) [KETOROLAC TROMETHAMINE] | Compound metabolized | Compound metabolized | Compound metabolized | Compound metabolized | Compound metabolized | Compound metabolized | Compound metabolized | Compound metabolized | Compound metabolized | Compound NOT metabolized | Compound metabolized | Compound metabolized | Compound metabolized | Compound metabolized | Compound metabolized | Compound NOT metabolized | Compound metabolized | Compound metabolized | Compound metabolized | Compound metabolized |
| COc1cc2c(c(OC)c1OC)-c1ccc(OC)c(=O)cc1[C@@H](NC(C)=O)CC2 [COLCHICINE] | Compound metabolized | Compound metabolized | Compound NOT metabolized | Compound metabolized | Compound NOT metabolized | Compound NOT metabolized | Compound NOT metabolized | Compound metabolized | Compound NOT metabolized | Compound NOT metabolized | Compound metabolized | Compound metabolized | Compound metabolized | Compound metabolized | Compound NOT metabolized | Compound NOT metabolized | Compound NOT metabolized | Compound metabolized | Compound NOT metabolized | Compound metabolized |
| C=CCc1ccccc1OCC(O)CNC(C)C (centres undefined) [ALPRENOLOL] | Compound NOT metabolized | Compound NOT metabolized | Compound metabolized | Compound NOT metabolized | Compound NOT metabolized | Compound NOT metabolized | Compound metabolized | Compound NOT metabolized | Compound NOT metabolized | Compound NOT metabolized | Compound NOT metabolized | Compound metabolized | Compound metabolized | Compound NOT metabolized | Compound NOT metabolized | Compound NOT metabolized | Compound NOT metabolized | Compound NOT metabolized | Compound metabolized | Compound metabolized |
| CCOC(=O)[C@H](CCc1ccccc1)N[C@H]1CCc2ccccc2N(CC(=O)O)C1=O [BENAZEPRIL] | Compound NOT metabolized | Compound metabolized | Compound metabolized | Compound metabolized | Compound metabolized | Compound metabolized | Compound metabolized | Compound metabolized | Compound metabolized | Compound metabolized | Compound metabolized | Compound metabolized | Compound metabolized | Compound metabolized | Compound metabolized | Compound metabolized | Compound metabolized | Compound metabolized | Compound metabolized | Compound metabolized |
| Cc1cn([C@H]2C[C@H](N=[N+]=[N-])[C@@H](CO)O2)c(=O)[nH]c1=O [ZIDOVUDINE] | Compound NOT metabolized | Compound NOT metabolized | Compound NOT metabolized | Compound NOT metabolized | Compound NOT metabolized | Compound metabolized | Compound NOT metabolized | Compound NOT metabolized | Compound NOT metabolized | Compound NOT metabolized | – | Compound NOT metabolized | Compound metabolized | Compound NOT metabolized | Compound metabolized | Compound metabolized | Compound NOT metabolized | Compound NOT metabolized | Compound NOT metabolized | Compound NOT metabolized |

Source: ChEMBL document CHEMBL5724914, “Linking interpersonal differences in gut microbiota composition and drug biotransformation activity” (2024)
